In ChEMBL document CHEMBL1201862, “PubChem BioAssay data set” (2004):
One block for each compound: values may come before it. Activity calls are given as the source filed them.

How the values were obtained:
Aminopeptidase N = biological target: T1, Aminopeptidase N (Plasmodium falciparum FcB1/Columbia, UniProt O96935); experiment: malaria alanyl aminopeptidase activity blockers – biochemical, fluorogenic H-Leu-NHMec substrate, 1536-well (AID 1445); parameters: species or system Plasmodium falciparum 3D7, 3D7
T1 sequence (O96935 whole entry): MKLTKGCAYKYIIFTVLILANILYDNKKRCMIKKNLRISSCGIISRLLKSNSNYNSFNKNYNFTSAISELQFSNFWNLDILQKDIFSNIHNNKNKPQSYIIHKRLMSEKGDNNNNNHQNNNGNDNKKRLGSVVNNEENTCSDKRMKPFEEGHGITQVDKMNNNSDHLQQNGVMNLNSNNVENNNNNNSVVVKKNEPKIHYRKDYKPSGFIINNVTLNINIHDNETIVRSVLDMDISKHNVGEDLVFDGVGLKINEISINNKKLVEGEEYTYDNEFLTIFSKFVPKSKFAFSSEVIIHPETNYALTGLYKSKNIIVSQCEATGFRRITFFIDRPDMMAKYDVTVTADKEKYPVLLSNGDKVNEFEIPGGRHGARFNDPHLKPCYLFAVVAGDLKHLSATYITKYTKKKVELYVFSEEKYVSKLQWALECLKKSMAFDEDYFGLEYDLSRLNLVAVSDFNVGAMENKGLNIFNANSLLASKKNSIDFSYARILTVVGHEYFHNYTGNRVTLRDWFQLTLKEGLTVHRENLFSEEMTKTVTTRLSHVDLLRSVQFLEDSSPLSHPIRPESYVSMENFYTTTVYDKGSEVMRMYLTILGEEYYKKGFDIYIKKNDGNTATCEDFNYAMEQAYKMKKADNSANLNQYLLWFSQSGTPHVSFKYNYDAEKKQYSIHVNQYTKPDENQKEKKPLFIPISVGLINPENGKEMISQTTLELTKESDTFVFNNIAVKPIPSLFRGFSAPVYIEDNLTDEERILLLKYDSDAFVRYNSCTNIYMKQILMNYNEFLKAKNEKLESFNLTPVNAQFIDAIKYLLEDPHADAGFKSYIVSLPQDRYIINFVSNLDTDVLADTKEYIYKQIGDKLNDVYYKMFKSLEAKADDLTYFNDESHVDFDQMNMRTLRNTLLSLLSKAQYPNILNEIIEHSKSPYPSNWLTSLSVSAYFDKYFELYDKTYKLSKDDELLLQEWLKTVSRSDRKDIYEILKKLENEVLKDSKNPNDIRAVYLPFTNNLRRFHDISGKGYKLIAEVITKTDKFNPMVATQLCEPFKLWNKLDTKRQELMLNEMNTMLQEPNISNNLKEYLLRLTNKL

Leucine aminopeptidase = biological target: T2, Leucine aminopeptidase (Plasmodium falciparum 3D7, UniProt Q8IL11); experiment: P. falciparum M17LAP inhibitors, primary screen, biochemical, fluorogenic H-Leu-NHMec substrate, 1536-well (AID 1619); assay type: functional
T2 sequence (Q8IL11 whole entry): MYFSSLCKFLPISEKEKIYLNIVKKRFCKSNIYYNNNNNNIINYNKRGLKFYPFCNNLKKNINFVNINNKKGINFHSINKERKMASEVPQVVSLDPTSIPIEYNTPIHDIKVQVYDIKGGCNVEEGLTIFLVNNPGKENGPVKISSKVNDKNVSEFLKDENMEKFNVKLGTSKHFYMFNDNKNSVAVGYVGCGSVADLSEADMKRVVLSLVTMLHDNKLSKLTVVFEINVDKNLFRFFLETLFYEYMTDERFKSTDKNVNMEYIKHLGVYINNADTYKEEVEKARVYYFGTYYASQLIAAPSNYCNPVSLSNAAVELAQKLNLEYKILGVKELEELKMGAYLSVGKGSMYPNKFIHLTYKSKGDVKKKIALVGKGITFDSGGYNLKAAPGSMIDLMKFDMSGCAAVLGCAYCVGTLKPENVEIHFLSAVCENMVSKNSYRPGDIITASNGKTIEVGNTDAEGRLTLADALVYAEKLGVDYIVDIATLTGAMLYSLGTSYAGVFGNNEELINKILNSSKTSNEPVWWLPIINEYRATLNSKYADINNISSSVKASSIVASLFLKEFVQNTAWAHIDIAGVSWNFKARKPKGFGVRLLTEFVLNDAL

Cytochrome P450 3A4 = Cytochrome P450 3A4 (Homo sapiens, UniProt P08684); conditions: Potency;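 also: confirmatory qHTS run detecting inhibitors and substrates of CYP3A4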
Sequence of Cytochrome P450 3A4 (P08684 whole entry): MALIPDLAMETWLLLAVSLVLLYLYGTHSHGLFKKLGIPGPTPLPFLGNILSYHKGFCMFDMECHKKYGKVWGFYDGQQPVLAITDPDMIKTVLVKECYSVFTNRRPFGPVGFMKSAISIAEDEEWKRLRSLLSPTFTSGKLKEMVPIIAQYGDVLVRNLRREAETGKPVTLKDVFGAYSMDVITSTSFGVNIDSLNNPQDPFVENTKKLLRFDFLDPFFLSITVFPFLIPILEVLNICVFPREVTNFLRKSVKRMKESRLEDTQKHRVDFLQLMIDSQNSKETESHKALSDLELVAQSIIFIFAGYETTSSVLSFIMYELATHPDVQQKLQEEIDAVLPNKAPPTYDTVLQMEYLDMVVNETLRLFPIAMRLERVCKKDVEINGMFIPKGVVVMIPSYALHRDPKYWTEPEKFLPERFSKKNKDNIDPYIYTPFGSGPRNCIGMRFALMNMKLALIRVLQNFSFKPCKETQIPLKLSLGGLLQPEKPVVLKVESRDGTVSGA

Caspase-6 = biological target: T3, Caspase-6 (Homo sapiens, UniProt P55212); experiment: inhibition of CASP6 peptide cleavage – biochemical, VEID-R110 fluorescence, cherry-pick, dose response (AID 720632)
T3 sequence (P55212 whole entry): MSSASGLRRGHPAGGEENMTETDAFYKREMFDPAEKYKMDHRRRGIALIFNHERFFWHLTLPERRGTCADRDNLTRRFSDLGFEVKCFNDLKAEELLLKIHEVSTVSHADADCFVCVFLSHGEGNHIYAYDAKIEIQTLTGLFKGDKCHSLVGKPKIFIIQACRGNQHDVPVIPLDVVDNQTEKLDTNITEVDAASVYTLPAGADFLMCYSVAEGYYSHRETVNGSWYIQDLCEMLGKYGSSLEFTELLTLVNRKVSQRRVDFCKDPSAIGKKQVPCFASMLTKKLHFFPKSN

[1] = biological target: Glyceraldehyde-3-phosphate dehydrogenase (Homo sapiens, UniProt P04406)
Sequence of Glyceraldehyde-3-phosphate dehydrogenase (P04406 whole entry): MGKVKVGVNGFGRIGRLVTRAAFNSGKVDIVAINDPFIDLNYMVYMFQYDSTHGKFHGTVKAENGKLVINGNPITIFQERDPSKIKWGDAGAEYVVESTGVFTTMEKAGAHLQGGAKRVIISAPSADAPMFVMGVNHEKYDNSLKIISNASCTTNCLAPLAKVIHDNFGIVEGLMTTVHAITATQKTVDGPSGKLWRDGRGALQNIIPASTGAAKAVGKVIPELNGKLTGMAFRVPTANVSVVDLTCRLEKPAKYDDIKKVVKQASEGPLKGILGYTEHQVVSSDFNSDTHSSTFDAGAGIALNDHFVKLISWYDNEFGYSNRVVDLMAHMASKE

[2] = P. falciparum Dd2 growth inhibitors, dose response, SYBR Green, cherry-picked samples (AID 1159567); assay type: functional, cell-based
[3] = toxicity to human hepatoma HepG2 cells – cell-based, cherry-picked samples, cytotoxicity control, dose response (AID 1159577); assay type: functional
[4] = activation of miR-122 Renilla sensor silencing – cell-based, Huh7 psiCHECK-miR122, Renilla luciferase, cherry-picked, dose response (AID 651956); assay type: functional;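 also: huh7 hepatoma cells stably carrying a psiCHECK-2 miR-122 sensor plasmid; renilla luciferase signal reporting endogenous miR-122 activity after 48 h compound exposure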
[5] = general mammalian cell viability loss – inhibitor set, cherry-pick, set 2, cytotoxicity control for miR-122 modulator project, dose response (AID 720697); assay type: functional, cell-based
[6] = general mammalian cell viability loss – activator set, cherry-pick, cytotoxicity control for miR-122 modulator project, dose response (AID 720690); assay type: functional, cell-based;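 also: HEK293T human cells scored for general mammalian cytotoxicity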

IC50 (Aminopeptidase N): 21.9 µM (active) | IC50 (Leucine aminopeptidase): 2.57 µM (active)
Structure (SMILES): Cc1noc(NS(=O)(=O)c2ccc(NC(=O)CSc3n[nH]c4c5ccccc5nc-4n3)cc2)c1C

IC50 (Leucine aminopeptidase): 6.58 µM (active)
Structure (SMILES): CCOC(=O)c1oc2c(O)c(O)ccc2c(=O)c1-c1nncn1-c1ccccc1

AC50 (Cytochrome P450 3A4): 39.8 µM (inconclusive)
Structure (SMILES): CC(C)c1nc(N(C)S(C)(=O)=O)nc(-c2ccc(F)cc2)c1/C=C/C(O)CC(O)CC(=O)O (stereo unspecified)

AC50 (Caspase-6): 47 µM (active)
Structure (SMILES): Cc1ccccc1Nc1nc(N)nc(COC(=O)c2ccc([N+](=O)[O-])o2)n1

AC50 (Cytochrome P450 3A4): 3.16 µM (inconclusive)
Structure (SMILES): CC(C)Cn1c(N)c(C(=O)COC(=O)c2cc(C(F)(F)F)nc3c(C(F)(F)F)cccc23)c(=O)n(C)c1=O

AC50 (Cytochrome P450 3A4): 31.6 µM (inconclusive)
Structure (SMILES): OC(CN1CCNCC1)Cn1c2ccc(Br)cc2c2cc(Br)ccc21 (stereo unspecified)

AC50 (Cytochrome P450 3A4): 1.58 µM (inconclusive)
Structure (SMILES): CC(=O)N1[C@H](C)C=C[C@]1(Cc1ccccc1)C(=O)NCCc1c[nH]c2ccccc12

AC50 (Caspase-6): 10.5 µM (active)
Structure (SMILES): Cc1cc(NS(=O)(=O)c2ccc(NC(=O)COc3ccccc3[N+](=O)[O-])cc2)no1

IC50 [1]: > 100 µM (not active)
Structure (SMILES): O=C(O)CS(=O)(=O)c1cccc(C(=O)O)c1

IC50 [1]: > 50 µM (inconclusive)
Structure (SMILES): Cc1ccc(N2C(=O)C(Cl)=C(N3CCN(c4ncccn4)CC3)C2=O)cc1

AC50 (Cytochrome P450 3A4): 15.8 µM (inconclusive)
Structure (SMILES): Clc1ccc(C2[C@H]3CN(CC4CCCCC4)[C@H](c4ccccc4)C34CC2(c2ccccc2)C4)cn1 (stereo partly specified)

AC50 (Cytochrome P450 3A4): 10 µM (inconclusive)
Structure (SMILES): C=C1C([C@@]2(C)C(OC(C)=O)CC(=O)O[C@@](C)(COC(C)=O)C2CC(=O)OC)C(OC=O)C(OC(=O)C(O)C(C)CC)[C@]2(C)C(c3ccoc3)CC(=O)C12O (stereo partly specified)

IC50 (Leucine aminopeptidase): 7.64 µM (active)
Structure (SMILES): N=C(CSc1nc(-c2ccccc2)c(-c2ccccc2)o1)NO

IC50 [1]: > 50 µM (inconclusive)
Structure (SMILES): C[C@@H]1CN(C2=C(Cl)C(=O)N(c3ccnc(Cl)c3)C2=O)CCN1

AC50 (Caspase-6): 14.5 µM (active)
Structure (SMILES): O=C(O)c1cc(S(=O)(=O)Nc2ccc3c[nH]nc3c2)ccc1Br

Structure (SMILES): COc1ccc(NC(=O)N2CCCCN3[C@@H](CO)[C@H](c4ccc(C#CCC(C)C)cc4)[C@@H]3C2)cc1
AC50 [2]: 0.491 µM (active) | AC50 [3]: 8.52 µM (active) | AC50 [4]: 3.18 µM (active) | AC50 [5]: 11.7 µM (active) | AC50 [6]: 11.6 µM (active)

IC50 (Leucine aminopeptidase): 24.8 µM (active)
Structure (SMILES): CSc1nnc(-c2cc(Br)ccc2/N=C/c2c(C)nn(-c3ccccc3)c2O)c(O)n1

Structure (SMILES): COc1ccc(C#Cc2ccc([C@H]3[C@H](CO)N4CCCCN(Cc5ccccc5F)C[C@@H]34)cc2)cc1
AC50 [2]: 0.781 µM (active) | AC50 [3]: 10.9 µM (active)

Structure (SMILES): C[C@H]1CN([C@@H](C)CO)S(=O)(=O)c2ccc(C3=CCCCC3)cc2O[C@@H]1CN(C)C(=O)Cc1ccncc1
AC50 [2]: 3.13 µM (active) | AC50 [3]: > 39 µM (inactive)
